Consider 9 compounds from US20100330070A1, “Methods Of Making An Antibody And Compositions Thereof” (priority 2009, published 2010).

The subject of assay [1] is LL-37. Nature of the assay: LL-37 expression by OBA9 cells with Sepharose-coupled benzoic acid isomers. The format is cell-based, human. The following applies: isomer coupled to NHS-activated Sepharose gel with EDC. The text has this: In order to investigate the structure-function relationship underlying EGCG-mediated induction of LL-37 from human gingival epithelial cell line OBA9, different isomers of benzoic acids are examined for their effects on the LL-37 expression by OBA9 cells. Each isomer of benzoic acids is coupled to NHS-activated Sepharose gel (Pierce) using a cross-linker, 1-Ethyl-3-[3-dimethylaminopropyl]carbodiimide (EDC, Pierce). The isomers of benzoic acids include 1) 2,6-di-hydroxy benzoic acid, 2) 2,3,4-tri-hydroxy benzoic acids, 3) 3,4,5-tri-hydroxy benzoic acids, and 4) 2,4,6-tri-hydroxy benzoic acids.

In assay [2] the test system is LL-37 mRNA. Nature of the assay: RT-PCR of LL-37 mRNA in cheek epithelial cells after mouthwash. The format is in vivo, human. The conditions noted are these: mouthwash with 40 ug/ml, after 5 minutes. The text has this:
(§1) Cheek epithelium is utilized for monitoring LL-37 mRNA and protein expression to determine if Trihydroxybenzoate Derivatives of the Invention can induce LL-37 in vivo. […] The isolated cheek cells are also subjected to Western blot analysis for protein expression of LL-37 by cheek epithelium using anti-LL-37 monoclonal antibody. The expression of both the proform (18 kD, also termed as hCAP18) and secreted form (4.5 kD) of LL-37 (12) in cheek epithelial cells is induced by Trihydroxybenzoate Derivatives of the Invention (e.g., EGCG (95% SIGMA), or by EGCG (90% Teavigo)).

Assay [3] relates to LL-37 mRNA. Briefly: LL-37 mRNA expression in human gingival epithelial cell line OBA9. The conditions noted are these: OBA9 cells, 4-hour exposure, 0.1, 1.0 and 10 ug/ml. The format is cell-based. Here is the method:
(§2) Both LL-37 and hBD2 mRNA expression in OBA9 cells are induced after a 4-hour exposure to green tea polyphenol extract, Teaflan 90S (EGCG 50%, ECG 13%), and purified EGCG (95% pure, SIGMA) at concentrations of 0.1, 1.0 and 10 ug/ml. EGCG increases the production of LL-37 and hBD2 at the mRNA level in the human gingival epithelial cell line OBA9 (FIG. 1) as well as the human lung carcinoma cell line A549.

Assay [4] has as its system hBD2 mRNA. Briefly: hBD2 mRNA expression in human gingival epithelial cell line OBA9. It counts as cell-based. The following applies: OBA9 cells, 4-hour exposure, 0.1, 1.0 and 10 ug/ml. Here is the method:
as §2

In assay [5] the test system is LL-37 mRNA. Nature of the assay: LL-37 mRNA level in human lung carcinoma cell line A549. The conditions noted are these: A549 cells. The format is cell-based. Here is the method:
as §2

Assay [6] relates to LL-37. Nature of the assay: Western blot of LL-37 protein in cheek epithelial cells. It counts as in vivo, human. The following applies: Western blot with anti-LL-37 monoclonal antibody.
Excerpt: as §1

For assay [7], the system named is hBD2 mRNA. Nature of the assay: hBD2 mRNA level in human lung carcinoma cell line A549. The format is cell-based. The conditions noted are these: A549 cells. Here is the method: as §2
The subject of assay [8] is Actinobacillus actinomycetemcomitans Y4. Briefly: Bactericidal effect of culture supernatant of treated OBA9 cells. The conditions noted are these: supernatant of OBA9 treated at 20 ug/ml; compared with non-treated, catechin- and 2,4-dihydroxy benzoic acid-treated supernatant. The format is cell-based. Here is the method:
The culture supernatant isolate from OBA9 is treated with 1) EGCG, 2) catechin, 3) 2,4-dihydroxy benzoic acid, and 4) 3,4,5-tri-hydroxy benzoic acid (20 ug/ml, respectively) and examined for their bactericidal effects on Actinobacillus actinomycetemcomitans Y4 (Aa Y4).

For assay [9], the system named is LL-37. Nature of the assay: ELISA of LL-37 induction from OBA9 cells. The format is cell-based, human. The following applies: for induction of LL-37 (ELISA): 20 ug/ml; for induction of LL-37 expression: in the absence of EGCG. Here is the method: (§3) Using ELISA systems to detect LL-37 (Forsyth in-house) and hBD2 (Peprotech), 33 natural compounds (20 ug/ml) are examined for their ability to induce LL-37 and hBD2 from OBA9 cells. Although the sensitivity of the hBD2 ELISA is higher than that of LL-37 ELISA (10 pg/ml vs 1 ng/ml, respectively), the induction of LL-37 is more prominent than hBD2 (FIG. 2 A&B, LL-37; C&D, hBD2). […] Bactericidal effects of LL-37 and hBD2 are, in general, potent.
The Trihydroxybenzoate Derivatives of the Invention and rosemarinic acid, courmarin, catechin gallate, epicatechin gallate, epigallocatechin, and tannic acid are tested to induce LL-37 from OBA9 cells in the absence of EGCG.

A further assay has as its system hBD2. Briefly: ELISA of hBD2 induction from OBA9 cells. The format is cell-based, human. The following applies: 20 ug/ml. Here is the method:
as §3

In the case of `O=C(O)c1ccc(O)c(O)c1O` [2,3,4-tri-hydroxy benzoic acids, 2,3,4-trihydroxybenzoic acid], in the assay on LL-37 [1], the “induction of LL-37 expression by OBA9 cells” value is on record as “show the induction”.
The same measure, in the same setting: the result for `O=C(O)c1c(O)cc(O)cc1O` [2,4,6-tri-hydroxy benzoic acids] reads “not”.
The same measure, in the same setting: the result for `O=C(O)c1c(O)cccc1O` [2,6-di-hydroxy benzoic acids, 2,6-di-hydroxy benzoic acid] reads “not”.
With `O=C(O[C@@H]1Cc2c(O)cc(O)cc2O[C@@H]1c1cc(O)c(O)c(O)c1)c1cc(O)c(O)c(O)c1` [EGCG], the “LL-37 mRNA expression by cheek epithelial cells” value in the assay with LL-37 mRNA [2] was “up-regulated”. Besides, the “LL-37 mRNA expression” value in the assay with LL-37 mRNA [3] is recorded as “induced”. Also, the “hBD2 mRNA expression” value in the assay with hBD2 mRNA [4] is given as “induced”. In the assay on LL-37 mRNA [5], the “production of LL-37 at the mRNA level” value is reported as “increases”. Besides, the “expression of proform (18 kD) and secreted form (4.5 kD) of LL-37 in cheek epithelial cells” value in the assay on LL-37 [6] was “induced”. In the assay with hBD2 mRNA [7], the “production of hBD2 at the mRNA level” value is on record as “increases”. Also, in [8], the “bactericidal effects of culture supernatant on Aa Y4” value was “more bactericidal effects than control”.
In the case of `CCCCCCCCCCCCCC(=O)O[C@@H]1[C@@H](C)[C@@]2(O)[C@@H](C=C(CO)C[C@]3(O)C(=O)C(C)=C[C@@H]23)[C@@H]2C(C)(C)[C@]12OC(C)=O` [PMA], in the assay with LL-37 [9], the “induction of LL-37 (ELISA)” value is reported as “induced”. For the same compound, the “induction of hBD2 (ELISA)” value in the assay on hBD2 is listed as “minimal induction activities”.
Regarding `O=C(/C=C/c1ccc(O)c(O)c1)O[C@H](Cc1ccc(O)c(O)c1)C(=O)O` [Rosemarinic acid], in the assay on LL-37 [9], the “induction of LL-37 expression” value is “little or no induction”.
Regarding `O=c1ccc2ccccc2o1` [courmarin], the “induction of LL-37 expression” value in the assay with LL-37 [9] is recorded as “little or no induction”.
For the compound `O=C(O)c1cc(O)c(O)c(O)c1` [gallic acid, 3,4,5-trihydroxybenzoic acid], in the assay with LL-37 [9], the “induction of LL-37 expression” value is reported as “more potent than 3,4,-dihydroxy benzoate”. Besides, in the assay with LL-37 [1], the “induction of LL-37 expression by OBA9 cells” value is given as “show the induction”. In assay [8], the “bactericidal effects of culture supernatant on Aa Y4” value is given as “more bactericidal effects than control”.
In the case of Poly IC, the “induction of LL-37 (ELISA)” value with LL-37 [9] is “induced”. The “induction of hBD2 (ELISA)” value with hBD2 is listed as “minimal induction activities”.
